Test results published in patent US20240350489A1, “LOU064 FOR TREATING MULTIPLE SCLEROSIS” (NOVARTIS AG, priority 2021, published 2024).
“Also recorded” adds a separate entry of the source. Read-outs that look alike come from different tables or passages of the source.

Columns and labels:
[1] = Co-administration with oral contraceptives; assay type: in vivo; settings: co-administered ethinylestradiol or levonorgestrel
[2] = Phase 2b trial in CSU, efficacy over 12 weeks; assay type: in vivo, human; settings: 25 mg b.i.d. regimen
[3] = Levels of LOU064 in mouse tissues (blood, brain, CSF); assay type: in vivo; settings: for concentration at 1 h / concentration at 5 h / concentration at 8 h: C57BL/6, mouse, oral
Procedure: The compound levels in total brain homogenate are very low and mainly detectable at the early timepoint. Similarly, the levels in cerebrospinal fluid (CSF) are low.
Blood, brain and CSF levels of LOU064 after oral dosing of 3 and 30 mg/kg b.i.d. The LLOQ were 0.2 nM in blood, […] in brain homogenate and 0.5 nM in CSF. Shown are averages ±SD from 4 animals for the 1 h timepoints and from 3 animals for the 5 and 8 h timepoints. Where denoted with ^a, the values were derived from one animal of three that was above the LLOQ.

[4] = 52-week open label extension study in CSU subjects, safety; settings: for safety signals / safety profile: 100 mg b.i.d. open-label, interim analyses
Procedure: In a 52-week open label extension study to evaluate the long-term safety and tolerability of LOU064 in eligible subjects with CSU who participated in the Phase 2b study the dose used was 100 mg b.i.d.

RatMOG-induced EAE [5] = experiment: RatMOG-induced EAE, short eight-day (pre-disease) protocol; parameters: species or system mouse; settings: dosed in vivo 8 days; LOU064 1, 3 and 10 mg/kg
Procedure: Isolated draining lymph node cells were incubated in vitro with RatMOG for 48 hours. Antigen-specific proliferation was determined by [^3H]-thymidine incorporation. Animals dosed in vivo with BTK inhibitors (LOU064, ibrutinib or Cyclosporin A (CsA) for 8 days. Group sizes n=4-5 per treatment.
To elucidate further whether BTK inhibitor efficacy was directly linked to reduction in B-cell antigen-presenting function compounds were tested in recombinant RatMOG-induced EAE model. This EAE model shares many of the characteristics of recombinant HumanMOG-induced EAE with MOG-specific T-cells infiltrating the CNS and resulting in neurological paralysis. However, RatMOG-induced EAE is B-cell independent and the dendritic cells are the dominant antigen-presenting cells type. Therefore, BTK inhibitors would be predicted to have no significant efficacy in RatMOG-induced EAE unless drug treatment was associated with a broader, non-specific, immune suppression. In addition to LOU064, which was used at 1 mg/kg, 3 mg/kg and 10 mg/kg, the reference compound ibrutinib was tested.
Cyclosporin A (CsA) acted as a positive control for direct T-cell immunosuppression. […] Ex vivo MOG-induced recall proliferation responses were studied using isolated splenocytes collected on day 8 post-immunization. In vivo BTK inhibitor treatment had no effect on recall responses (FIG. 12).

[6] = tested on: splenocytes and draining lymph node cells; experiment: Ex vivo MOG-induced recall proliferation, HumanMOG EAE; parameters: species or system mouse; settings: dosed in vivo
Procedure: Prophylactic LOU064 (b.i.d.) treatment during HumanMOG EAE inhibits (auto)antigen recall proliferation. Isolated splenocytes and draining lymph node cells were incubated in vitro with HumanMOG for 48 hours. Antigen-specific proliferation was determined by [^3H]-thymidine incorporation. […] Group sizes n=5 per treatment.
Ex vivo MOG-induced recall proliferation responses were studied using isolated splenocytes and draining lymph node cells collected on day 8 post-immunization. […] In contrast, plate-bound anti-CD3/CD28 polyclonal stimulation of lymph node cells was unaffected by the in vivo treatment.

[7] = single/multiple doses 0.5 mg to 600 mg up to 18 days; 100 and 200 mg b.i.d.; cited from earlier work
[8] = tested on: B-cell and CD4+ T-cell populations; experiment: Ex vivo analysis of B-cell and CD4+ T-cell populations, HumanMOG EAE; parameters: species or system mouse; settings: dosed in vivo b.i.d.
From the text: Prophylactic LOU064 (b.i.d.) treatment during HumanMOG EAE reduces Th17 cells. […] Group sizes n=5 per treatment. Statistical significance (ANOVA with Dunnett's test) is shown as *p<0.05.

RatMOG-induced EAE [9] = experiment: RatMOG-induced EAE, b.i.d. dosing until study end; assay type: in vivo
Procedure: Dosing of LOU064 was initiated 4 hours prior to MOG/CFA immunization and continued twice daily until study end.

BTK [10] = biological target: T1, BTK (Mus musculus, UniProt P35991); experiment: Trough BTK occupancy in spleen, blood and brain, RatMOG EAE; assay type: in vivo; settings: 30 mg/kg b.i.d., 16 h after the last dose
T1 construct: BTK occupancy was assessed in brain homogenates that had been prepared for compound exposure analysis; from tissue; host or cells: spleen, inguinal lymph nodes, blood and brain homogenate of C57BL/6 EAE mice
T1 sequence (P35991 whole entry): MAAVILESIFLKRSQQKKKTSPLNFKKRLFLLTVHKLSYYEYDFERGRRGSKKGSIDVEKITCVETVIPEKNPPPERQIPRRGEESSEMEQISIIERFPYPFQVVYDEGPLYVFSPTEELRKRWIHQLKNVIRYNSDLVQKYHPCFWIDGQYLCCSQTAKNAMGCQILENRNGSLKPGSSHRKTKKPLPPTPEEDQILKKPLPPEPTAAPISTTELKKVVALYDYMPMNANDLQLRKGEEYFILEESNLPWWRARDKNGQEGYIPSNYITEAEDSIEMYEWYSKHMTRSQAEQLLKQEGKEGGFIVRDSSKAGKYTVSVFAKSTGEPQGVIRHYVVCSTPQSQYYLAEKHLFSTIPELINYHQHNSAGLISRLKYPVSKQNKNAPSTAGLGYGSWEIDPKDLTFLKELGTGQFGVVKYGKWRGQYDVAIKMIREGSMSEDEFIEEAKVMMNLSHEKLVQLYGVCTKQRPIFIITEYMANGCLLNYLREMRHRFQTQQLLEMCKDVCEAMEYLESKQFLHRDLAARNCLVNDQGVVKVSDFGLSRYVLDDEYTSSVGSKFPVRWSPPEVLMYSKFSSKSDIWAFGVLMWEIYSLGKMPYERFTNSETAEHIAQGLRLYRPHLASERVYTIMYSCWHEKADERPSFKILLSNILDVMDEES

BTK [11] = biological target: T2, BTK (Rattus norvegicus, UniProt Q5S255); settings: female rats, single oral dose of 3 mg/kg; cited from earlier work
T2 construct: from tissue; host or cells: blood and spleen of female rats
T2 sequence (Q5S255 1-660): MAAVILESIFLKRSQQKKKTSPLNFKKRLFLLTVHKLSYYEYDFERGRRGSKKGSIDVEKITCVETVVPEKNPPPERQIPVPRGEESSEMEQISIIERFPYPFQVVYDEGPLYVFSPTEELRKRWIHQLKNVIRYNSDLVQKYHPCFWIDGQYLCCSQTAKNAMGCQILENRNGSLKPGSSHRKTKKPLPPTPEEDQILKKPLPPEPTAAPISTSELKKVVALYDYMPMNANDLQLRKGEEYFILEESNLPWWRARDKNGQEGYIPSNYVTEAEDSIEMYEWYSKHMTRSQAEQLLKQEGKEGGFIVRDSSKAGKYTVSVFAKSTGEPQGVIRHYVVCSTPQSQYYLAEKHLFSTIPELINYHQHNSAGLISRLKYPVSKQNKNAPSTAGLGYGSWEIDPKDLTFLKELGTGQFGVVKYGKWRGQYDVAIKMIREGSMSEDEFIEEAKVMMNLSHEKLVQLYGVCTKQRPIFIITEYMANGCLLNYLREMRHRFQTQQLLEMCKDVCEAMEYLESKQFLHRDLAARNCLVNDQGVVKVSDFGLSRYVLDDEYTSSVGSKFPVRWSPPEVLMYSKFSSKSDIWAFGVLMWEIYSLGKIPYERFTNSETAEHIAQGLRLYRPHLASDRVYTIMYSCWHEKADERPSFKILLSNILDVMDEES

[12] = 100 mg B.I.D., N = 100, interim cut off 31 Aug. 2020
[13] = ES, 100 mg b.i.d., N = 183, listed as remibrutinib

C=CC(=O)N(C)CCOc1c(N)ncnc1-c1cc(F)cc(NC(=O)c2ccc(C3CC3)cc2F)c1C [LOU064, N-(3-(6-amino-5-(2-(N-methylacrylamido)ethoxy)pyrimidin-4-yl)-5-fluoro-2-methylphenyl)-4-cyclopropyl-2-fluorobenzamide]
impact on exposure and efficacy of oral contraceptives [1]: without a major impact on their exposure and efficacy
efficacy in CSU [2]: particularly effective compared to the other doses
Levels of LOU064, Brain ([3]; 3 mg/kg p.o. b.i.d., 1 h): 2.3 ± 2.2 pmol/g
Levels of LOU064, Brain ([3]; 3 mg/kg p.o. b.i.d., 5 h): <0.5 pmol/g
Levels of LOU064, Brain ([3]; 3 mg/kg p.o. b.i.d., 8 h): <0.5 pmol/g
Levels of LOU064, Brain ([3]; 30 mg/kg p.o. b.i.d., 1 h): 13.5 ± 6.0 pmol/g
Levels of LOU064, CSF ([3]; 30 mg/kg p.o. b.i.d., 1 h): 8.4 ± 3.1 nM
Levels of LOU064, Brain ([3]; 30 mg/kg p.o. b.i.d., 5 h): 0.7 ± 0.02 pmol/g
Levels of LOU064, Brain ([3]; 30 mg/kg p.o. b.i.d., 8 h): <0.5 pmol/g
concentration at 1 h ([3]; CSF, 3 mg/kg p.o. b.i.d., 1 h, read-out: Levels of LOU064, CSF): 3 ± 3.3 nM
concentration at 5 h ([3]; CSF, 3 mg/kg p.o. b.i.d., 5 h, one animal of three above LLOQ, read-out: Levels of LOU064, CSF): 0.5 nM
concentration at 8 h ([3]; CSF, 3 mg/kg p.o. b.i.d., 8 h, read-out: Levels of LOU064, CSF): < 0.5 nM
concentration at 5 h ([3]; CSF, 30 mg/kg p.o. b.i.d., 5 h, one animal of three above LLOQ, read-out: Levels of LOU064, CSF): 0.5 nM
concentration at 8 h ([3]; CSF, 30 mg/kg p.o. b.i.d., 8 h, read-out: Levels of LOU064, CSF): < 0.5 nM
concentration at 1 h ([3]; whole blood, 3 mg/kg p.o. b.i.d., 1 h, read-out: Levels of LOU064, Blood): 28.2 ± 11.7 nM
concentration at 5 h ([3]; whole blood, 3 mg/kg p.o. b.i.d., 5 h, read-out: Levels of LOU064, Blood): 0.4 ± 0.04 nM
concentration at 8 h ([3]; whole blood, 3 mg/kg p.o. b.i.d., 8 h, read-out: Levels of LOU064, Blood): 0.2 ± 0.07 nM
concentration at 1 h ([3]; whole blood, 30 mg/kg p.o. b.i.d., 1 h, read-out: Levels of LOU064, Blood): 371 ± 149 nM
concentration at 5 h ([3]; whole blood, 30 mg/kg p.o. b.i.d., 5 h, read-out: Levels of LOU064, Blood): 19.4 ± 9.9 nM
concentration at 8 h ([3]; whole blood, 30 mg/kg p.o. b.i.d., 8 h, read-out: Levels of LOU064, Blood): 3.4 ± 2.3 nM
Death [4, 12]: 0 n
Discontinued study due to an SAE(s) [4, 12]: 0 n
safety signals / safety profile [4]: No safety signal has been observed; also recorded: no safety signals have been observed; also recorded: well tolerated and with a favorable safety profile
safety signals / safety profile ([4]; listed as Remibrutinib): no new safety signals
dose-limiting liver enzyme elevations and other off-target-effects ([4]; 100 mg b.i.d. over an extended period of time): does not induce any dose-limiting liver enzyme elevations and other off-target-effects
AE Headache (PT) ([4]; 100 mg b.i.d., N = 100 interim): 6%
AE Infections and infestations (SOC) ([4]; 100 mg b.i.d., N = 100 interim): 14%
AE Skin and subcutaneous tissue disorders (SOC) ([4]; 100 mg b.i.d., N = 100 interim): 13%
AE diarrhea (PT) ([4]; 100 mg b.i.d., N = 100 interim): 4%
AE dizziness (PT) ([4]; 100 mg b.i.d., N = 100 interim): 3%
AE gastroenteritis (PT) ([4]; 100 mg b.i.d., N = 100 interim): 3%
bleeding events or events under SOC Blood and lymphatic system disorders ([4]; 100 mg b.i.d., N = 100 interim): no bleeding events
ECG findings or QT of >500 ms ([4]; ES and CS, any patient): no significant ECG findings or QT of >500 ms noted in any patient
AE Headache (PT) [4, 13]: 6.6%
AE Infections and infestations (SOC) [4, 13]: 23.0%
AE Skin and subcutaneous tissue disorders (SOC) [4, 13]: 17.5%
Discontinued study treatment due to AE(s) [4, 13]: 6 n
Patients with SAE(s) [4, 13]: 4 n
AE Skin and subcutaneous tissue disorders (SOC) ([4]; ES, 100 mg b.i.d., N=183): 32 n
Incidence of AESI bleeding ([4]; ES, 100 mg b.i.d., N=183): 4.4%
Incidence of AESI cytopenias ([4]; ES, 100 mg b.i.d., N=183): 0.5%
Incidence of AESI infections ([4]; ES, 100 mg b.i.d., N=183): 23%
deaths ([4]; ES, 100 mg b.i.d., N=183): no deaths
patients with isolated ALT>3xULN ([4]; ES, N=183, normalized within 4 weeks): 1 patient
RatMOG (auto)antigen recall proliferation (RatMOG-induced EAE [5]): failed to inhibit (auto)antigen recall proliferation
MOG-specific proliferation ([3H]-thymidine incorporation) ([6]; cells incubated with HumanMOG 48 hours): dose-dependent reduction in MOG-specific proliferation
polyclonal stimulation with anti-CD3/CD28 ([6]; lymph node cells): unchanged
short-term safety [7]: has been shown in Phase I clinical studies
Th1 and Tregs [8]: unchanged; also recorded: No changes were observed
Th17 (IL-17+) cells [8]: reduced; also recorded: significant reduction
frequencies of B-cell populations [8]: no significant changes in total B-cell populations
total CD4+ T-cell population [8]: unchanged
tolerability (RatMOG-induced EAE [9]; 30 mg/kg b.i.d.): well tolerated in all mice
cumulative disease burden (RatMOG-induced EAE [9]; 30 mg/kg b.i.d., p value=0.013): significantly reduced
disease incidence and time of EAE onset (RatMOG-induced EAE [9]; 30 mg/kg b.i.d., p value=0.018): reduction in the incidence of EAE and a delayed onset; also recorded: significantly reduced disease incidence
clinical symptoms of EAE / EAE scores (RatMOG-induced EAE [9]; 30 mg/kg p.o. b.i.d.): inhibited inflammation-induced clinical symptoms of EAE and cachexia; also recorded: efficacious at reducing the severity of RatMOG-induced EAE; also recorded: improvement in EAE scores
daily body weight changes (cachexia) (RatMOG-induced EAE [9]; 30 mg/kg p.o. b.i.d.): significantly reduced
BTK occupancy in brain (BTK [10]): intermediate levels; also recorded: only partial BTK occupancy in the brain
BTK occupancy in spleen and blood (BTK [10]): in a range indicative of maximal BTK occupancy; also recorded: full BTK occupancy in blood and spleen
BTK occupancy in blood and spleen (BTK [11]): full BTK occupancy
